According to PubChem BioAssay AID2060898 (Molecular Pharmacology Branch, DTP, NCI, 2025):
pIC50: −log10 of the molar value. One block for each molecule: values may come before it.

Test system: 616215-338-R-J1-PDC complex spheroid viability
Test: Anticancer human tumor 616215-338-R-J1-PDC patient-derived colon adenocarcinoma cell line growth inhibition [RAS]
Settings: for pIC50: curve of first compound; for viability, T/C: stronger effect = lower value
Text: RAS pathway inhibitors in Combinations in Complex Spheroids
A high-throughput screen of multi-cell type tumor spheroids was designed to identify active combinations of RAS pathway inhibitors and targeted small molecules. Complex spheroids include a stromal component modeled by human endothelial cells (HUVEC) and fibroblasts modeled by human mesenchymal stem cells (MSCs). The concentration ranges selected for each drug and investigational agent were based upon clinically achievable concentrations if the clinical Cmax of the agent was known.
Compounds. The drugs and investigational agents: abemaciclib (NSC768073), cobimetinib (NSC768068), divarasib (GDC6063, NSC841802), docetaxel (NSC628503), GDC-1971 (RLY-1971, NSC841576), gemcitabine (NSC613327), inavolisib (NSC800729), ipatasertib (NSC767898), KB-0742 (NSC834161), MRTX-1133 (NSC836407), osimertinib (NSC779217), RMC-4630 (NSC839698), RMC-6236 (NSC851965), RMC-6291 (NSC852671), Ro-3306 (NSC812927), sapanisertib (NSC764658), SN-38 (NSC673596), staurosporine (NSC755774), SY5609 (NSC837396), and tovorafenib (DAY101, NSC766906), were obtained from the National Cancer Institute (NCI) Developmental Therapeutics Program Chemical Repository. The FDA-approved anticancer drug set is available from the NCI Developmental Therapeutics Program. […] The stock solutions were prepared in dimethyl sulfoxide (DMSO, Sigma-Aldrich, St. Louis, MO, cat. D2650) at 800-fold the tested concentration and stored at -70 degrees C prior to their use. All drugs and investigational agents were tested over a range starting from a high concentration at or near the clinical Cmax and decreasing in half-log increments. If the clinical Cmax for an agent had not been determined, the highest concentration tested was 10 microM.
Cell Culture. All cells were maintained in an incubator at 37 degrees C and 5% CO2 with 95% humidity. The PDC lines were cultured according to standard operating procedures established by the NCI PDMR. All PDCs were thawed and cultured in Matrigel-coated flasks prepared with a working solution of 1X Ham's F-12 nutrient mix, without supplementation (Invitrogen, Waltham, MA, cat. 11765054), 100 U/mL penicillin-streptomycin (Invitrogen, cat. 15140122), and 2.5% Matrigel (Corning Inc., Corning, NY, cat. 354248) for the first three passages. The 362531-283-R-J2-PDC and 782815-120-R-J1-PDC lines were cultured in 6C/Colon 1B media, which includes advanced DMEM/F-12 (Thermo Fisher Scientific, cat. 12634028), 10 mM HEPES (Thermo Fisher Scientific, cat. 15630080), 1X GlutaMAX supplement (Thermo Fisher Scientific, cat. 35050061), 0.1 mg/mL primocin (InvivoGen, San Diego, CA, cat. ant-pm-2), 10% defined fetal bovine serum, heat inactivated (HyClone Laboratories Inc., Logan, UT, cat. SH30070.03HI), 50% L-WRN conditioned media (ATCC, cat. CRL-3276), 1.25 mM N-Acetyl-L-cysteine (Sigma-Aldrich, cat. A9165), 10 mM nicotinamide (Sigma-Aldrich, cat. N0636), 1X B-27 supplement (Thermo Fisher Scientific, cat. 17504044), 1X N-2 supplement (Thermo Fisher Scientific, cat. 17502048), 50 ng/mL human EGF (Thermo Fisher Scientific, cat. PHG0311), and 10 microM Y-27632 dihydrochloride (Tocris Bioscience, cat. 1254). The K12877-001-R-J1-PDC line was cultured in 6I media, which includes all 6C/Colon 1B media plus 10 ng/mL human FGF-10 (PeproTech, cat. 100-26), 1 ng/mL human FGF-2 (PeproTech, cat. 100-18B), 1 µM prostaglandin E2 (Tocris Bioscience, cat. 2296), […] hydrocortisone (Sigma-Aldrich, cat. H4001), and […] bovine insulin (Sigma-Aldrich, cat. I6634). The K86415-001-R-J1-PDC line was cultured in 6D media, which includes all 6C/Colon 1B media components minus the L-WRN conditioned media. The 485176-168-R4-J1-PDC was cultured in PANC media, which includes all 6C/Colon 1B media plus 100 ng/mL human FGF-10 (PeproTech, cat. 100-26), 500 nM SB-431542 (Selleckchem, cat. S1067), and 10 nM gastrin (Tocris Bioscience, cat. 3006). […]

[1] = second compound 0.0316 µM, first compound 0.0316 µM
[2] = second compound 0.0316 µM, first compound 0.1 µM
[3] = second compound 0.0316 µM, first compound 0.316 µM
[4] = second compound 0.0316 µM, first compound 1 µM
[5] = second compound 0.0316 µM, first compound 3.16 µM
[6] = second compound 0.0316 µM, first compound 10 µM
[7] = second compound 0.1 µM, first compound 0.0316 µM
[8] = second compound 0.1 µM, first compound 0.1 µM
[9] = second compound 0.1 µM, first compound 0.316 µM
[10] = second compound 0.1 µM, first compound 1 µM
[11] = second compound 0.1 µM, first compound 3.16 µM
[12] = second compound 0.1 µM, first compound 10 µM
[13] = second compound 0.316 µM, first compound 0.0316 µM
[14] = second compound 0.316 µM, first compound 0.1 µM
[15] = second compound 0.316 µM, first compound 0.316 µM
[16] = second compound 0.316 µM, first compound 1 µM
[17] = second compound 0.316 µM, first compound 3.16 µM
[18] = second compound 0.316 µM, first compound 10 µM
[19] = second compound 1 µM, first compound 0.0316 µM
[20] = second compound 1 µM, first compound 0.1 µM
[21] = second compound 1 µM, first compound 0.316 µM
[22] = second compound 1 µM, first compound 1 µM
[23] = second compound 1 µM, first compound 3.16 µM
[24] = second compound 1 µM, first compound 10 µM
[25] = second compound 3.16 µM, first compound 0.0316 µM
[26] = second compound 3.16 µM, first compound 0.1 µM
[27] = second compound 3.16 µM, first compound 0.316 µM
[28] = second compound 3.16 µM, first compound 1 µM
[29] = second compound 3.16 µM, first compound 3.16 µM
[30] = second compound 3.16 µM, first compound 10 µM
[31] = second compound 10 µM, first compound 0.0316 µM
[32] = second compound 10 µM, first compound 0.1 µM
[33] = second compound 10 µM, first compound 0.316 µM
[34] = second compound 10 µM, first compound 1 µM
[35] = second compound 10 µM, first compound 3.16 µM
[36] = second compound 10 µM, first compound 10 µM
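Also: spheroids exposed to agents for seven days before viability readout.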
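For viability, T/C in this document: 100% = DMSO vehicle control viability.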

pIC50 (second compound 0.0316 µM): 5.97
pIC50 (second compound 0.1 µM): 6.03
pIC50 (second compound 0.316 µM): 6.08
pIC50 (second compound 1 µM): 6.59
pIC50 (second compound 3.16 µM): 6.88
pIC50 (second compound 10 µM): 7.36
Compound: CC1(O)CCCC1n1c(=O)c(C(F)F)cc2cnc(NC3CCN(S(C)(=O)=O)CC3)nc21 (stereo unspecified) + C#Cc1c(F)ccc2cc(O)cc(-c3ncc4c(N5CC6CCC(C5)N6)nc(OCC56CCCN5CC(F)C6)nc4c3F)c12
viability, T/C [1]: 110%
viability, T/C [2]: 114%
viability, T/C [3]: 53.5%
viability, T/C [4]: 49.1%
viability, T/C [5]: 45.4%
viability, T/C [6]: 1.06%
viability, T/C [7]: 107%
viability, T/C [8]: 118%
viability, T/C [9]: 50.2%
viability, T/C [10]: 46.8%
viability, T/C [11]: 39.4%
viability, T/C [12]: 0.75%
viability, T/C [13]: 117%
viability, T/C [14]: 112%
viability, T/C [15]: 54.5%
viability, T/C [16]: 44%
viability, T/C [17]: 37.9%
viability, T/C [18]: 2.34%
viability, T/C [19]: 111%
viability, T/C [20]: 94.2%
viability, T/C [21]: 38.8%
viability, T/C [22]: 45.9%
viability, T/C [23]: 50.5%
viability, T/C [24]: 0.81%
viability, T/C [25]: 90.4%
viability, T/C [26]: 49.9%
viability, T/C [27]: 29.8%
viability, T/C [28]: 35.8%
viability, T/C [29]: 31.4%
viability, T/C [30]: 2.44%
viability, T/C [31]: 59.5%
viability, T/C [32]: 23.7%
viability, T/C [33]: 26.1%
viability, T/C [34]: 22.2%
viability, T/C [35]: 21.8%
viability, T/C [36]: 1.18%

pIC50 (second compound 0.0316 µM): 5.75
pIC50 (second compound 0.1 µM): 5.75
pIC50 (second compound 0.316 µM): 5.74
pIC50 (second compound 1 µM): 5.73
pIC50 (second compound 3.16 µM): 5.82
pIC50 (second compound 10 µM): 5.91
Compound: CCC(CC)c1cc(NC2CCC(N)C2)n2nccc2n1 (stereo unspecified) + C#Cc1c(F)ccc2cc(O)cc(-c3ncc4c(N5CC6CCC(C5)N6)nc(OCC56CCCN5CC(F)C6)nc4c3F)c12
viability, T/C [1]: 102%
viability, T/C [2]: 98.3%
viability, T/C [3]: 109%
viability, T/C [4]: 99.3%
viability, T/C [5]: 0.29%
viability, T/C [6]: 1.51%
viability, T/C [7]: 104%
viability, T/C [8]: 105%
viability, T/C [9]: 96.3%
viability, T/C [10]: 99.9%
viability, T/C [11]: 0.27%
viability, T/C [12]: 0.21%
viability, T/C [13]: 112%
viability, T/C [14]: 111%
viability, T/C [15]: 101%
viability, T/C [16]: 106%
viability, T/C [17]: 0.21%
viability, T/C [18]: 1.88%
viability, T/C [19]: 105%
viability, T/C [20]: 110%
viability, T/C [21]: 113%
viability, T/C [22]: 106%
viability, T/C [23]: 1.09%
viability, T/C [24]: 1.83%
viability, T/C [25]: 115%
viability, T/C [26]: 111%
viability, T/C [27]: 121%
viability, T/C [28]: 77.7%
viability, T/C [29]: 0.19%
viability, T/C [30]: 1.03%
viability, T/C [31]: 83.3%
viability, T/C [32]: 74.5%
viability, T/C [33]: 108%
viability, T/C [34]: 61.3%
viability, T/C [35]: 3.3%
viability, T/C [36]: 0.3%

pIC50 (second compound 0.0316 µM): < 5.00
pIC50 (second compound 0.1 µM): < 5.00
pIC50 (second compound 0.316 µM): 5.28
pIC50 (second compound 1 µM): 6.27
pIC50 (second compound 3.16 µM): 6.52
pIC50 (second compound 10 µM): 6.74
Compound: Cc1nc(N2CCC3(CC2)COC(C)C3N)c(CO)nc1Sc1ccnc(N)c1Cl (stereo unspecified) + C#Cc1c(F)ccc2cc(O)cc(-c3ncc4c(N5CC6CCC(C5)N6)nc(OCC56CCCN5CC(F)C6)nc4c3F)c12
viability, T/C [1]: 99.5%
viability, T/C [2]: 108%
viability, T/C [3]: 116%
viability, T/C [4]: 95.2%
viability, T/C [5]: 88.5%
viability, T/C [6]: 67.8%
viability, T/C [7]: 101%
viability, T/C [8]: 113%
viability, T/C [9]: 104%
viability, T/C [10]: 79.6%
viability, T/C [11]: 68%
viability, T/C [12]: 63.1%
viability, T/C [13]: 113%
viability, T/C [14]: 116%
viability, T/C [15]: 98.3%
viability, T/C [16]: 75.3%
viability, T/C [17]: 57.7%
viability, T/C [18]: 42.1%
viability, T/C [19]: 98.2%
viability, T/C [20]: 97.2%
viability, T/C [21]: 52.7%
viability, T/C [22]: 48.5%
viability, T/C [23]: 48.2%
viability, T/C [24]: 43.7%
viability, T/C [25]: 88.8%
viability, T/C [26]: 67.9%
viability, T/C [27]: 49.2%
viability, T/C [28]: 49.9%
viability, T/C [29]: 41.2%
viability, T/C [30]: 54.1%
viability, T/C [31]: 52.2%
viability, T/C [32]: 61.4%
viability, T/C [33]: 43.8%
viability, T/C [34]: 37%
viability, T/C [35]: 34.6%
viability, T/C [36]: 33%
